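In this assay, cells in 96-well plates receive the compound at five concentrations for 48 hours. Endpoints are linearly interpolated between the surrounding concentrations. Abbreviation: GI50, concentration required for 50% inhibition of growth. TGI is the concentration that stops growth completely.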
Key:
Test in all cases: NCI tumour cell line growth inhibition, 48 h
MDA-MB-231 breast = tested on: MDA-MB-231 breast
DMS 273 small cell lung = tested on: DMS 273 small cell lung
KM20L2 colon = tested on: KM20L2 colon
K-562 leukemia = tested on: K-562 leukemia
A549 NSCLC = tested on: A549 NSCLC
SNB-75 CNS = tested on: SNB-75 CNS
DLD-1 colon = tested on: DLD-1 colon
UO-31 renal = tested on: UO-31 renal
UACC-257 melanoma = tested on: UACC-257 melanoma
U251 CNS = tested on: U251 CNS
MCF7 breast = tested on: MCF7 breast
MOLT-4 leukemia = tested on: MOLT-4 leukemia
HOP-18 NSCLC = tested on: HOP-18 NSCLC
CAKI-1 renal = tested on: CAKI-1 renal
LOX IMVI melanoma = tested on: LOX IMVI melanoma
NCI-H460 lung = tested on: NCI-H460 lung
IGROV1 ovarian = tested on: IGROV1 ovarian
HCT-15 colon = tested on: HCT-15 colon
SF-539 CNS = tested on: SF-539 CNS
RPMI-8226 leukemia = tested on: RPMI-8226 leukemia
M19-MEL melanoma = tested on: M19-MEL melanoma
MDA-MB-435 = tested on: MDA-MB-435
HOP-92 NSCLC = tested on: HOP-92 NSCLC
ACHN renal = tested on: ACHN renal
786-0 renal = tested on: 786-0 renal
HT29 colon = tested on: HT29 colon
CCRF-CEM leukemia = tested on: CCRF-CEM leukemia
MALME-3M melanoma = tested on: MALME-3M melanoma
BT-549 breast = tested on: BT-549 breast
KM12 colon = tested on: KM12 colon
SN12C renal = tested on: SN12C renal
SNB-19 CNS = tested on: SNB-19 CNS
UACC-62 melanoma = tested on: UACC-62 melanoma
PC-3 prostate = tested on: PC-3 prostate
LXFL 529 NSCLC = tested on: LXFL 529 NSCLC
NCI-H226 lung = tested on: NCI-H226 lung
SK-MEL-2 melanoma = tested on: SK-MEL-2 melanoma
T-47D breast = tested on: T-47D breast
SF-295 CNS = tested on: SF-295 CNS
HCT-116 colon = tested on: HCT-116 colon
DU-145 prostate = tested on: DU-145 prostate
TK-10 renal = tested on: TK-10 renal
HOP-62 NSCLC = tested on: HOP-62 NSCLC
OVCAR-5 ovarian = tested on: OVCAR-5 ovarian
EKVX NSCLC = tested on: EKVX NSCLC
RXF 393 renal = tested on: RXF 393 renal
HCC-2998 colon = tested on: HCC-2998 colon
SK-MEL-5 melanoma = tested on: SK-MEL-5 melanoma
HL-60(TB) leukemia = tested on: HL-60(TB) leukemia
M14 melanoma = tested on: M14 melanoma
OVCAR-3 ovarian = tested on: OVCAR-3 ovarian
SK-OV-3 ovarian = tested on: SK-OV-3 ovarian
SNB-78 CNS = tested on: SNB-78 CNS
SW-620 colon = tested on: SW-620 colon
OVCAR-4 ovarian = tested on: OVCAR-4 ovarian
COLO 205 colon = tested on: COLO 205 colon
SR leukemia = tested on: SR leukemia
NCI/ADR-RES ovarian = tested on: NCI/ADR-RES ovarian
NCI-H23 lung = tested on: NCI-H23 lung
SK-MEL-28 melanoma = tested on: SK-MEL-28 melanoma
HS 578T breast = tested on: HS 578T breast
A498 renal = tested on: A498 renal
SF-268 CNS = tested on: SF-268 CNS
NCI-H522 lung = tested on: NCI-H522 lung
OVCAR-8 ovarian = tested on: OVCAR-8 ovarian
DMS 114 small cell lung = tested on: DMS 114 small cell lung
XF 498 CNS = tested on: XF 498 CNS

CN(C)c1ccc(/C=C(/NC(=O)c2ccccc2)c2nc3ccc(Cl)cc3[nH]2)cc1
GI50 (MDA-MB-231 breast): 28.4 µM | TGI (MDA-MB-231 breast): > 95.3 µM | TGI (DMS 273 small cell lung): > 100 µM | TGI (KM20L2 colon): 84.8 µM | TGI (K-562 leukemia): > 73.8 µM | TGI (A549 NSCLC): > 100 µM | TGI (SNB-75 CNS): > 91.3 µM | TGI (DLD-1 colon): > 100 µM | TGI (UO-31 renal): > 100 µM | TGI (UACC-257 melanoma): > 86.5 µM | TGI (U251 CNS): > 100 µM | GI50 (MCF7 breast): 24.5 µM | TGI (MCF7 breast): > 100 µM | TGI (MOLT-4 leukemia): 71.1 µM | TGI (HOP-18 NSCLC): 8.45 µM | TGI (CAKI-1 renal): > 100 µM | TGI (LOX IMVI melanoma): > 70.6 µM | TGI (NCI-H460 lung): > 100 µM | TGI (IGROV1 ovarian): > 100 µM | TGI (HCT-15 colon): > 73.1 µM | TGI (SF-539 CNS): > 100 µM | TGI (RPMI-8226 leukemia): > 82.2 µM | TGI (M19-MEL melanoma): 69.6 µM | GI50 (MDA-MB-435): 29.8 µM | TGI (MDA-MB-435): > 100 µM | TGI (HOP-92 NSCLC): 80.1 µM | TGI (ACHN renal): > 100 µM | TGI (786-0 renal): > 100 µM | TGI (HT29 colon): 78.5 µM | TGI (CCRF-CEM leukemia): > 84 µM | TGI (MALME-3M melanoma): > 82.9 µM | GI50 (BT-549 breast): 25.4 µM | TGI (BT-549 breast): 85.8 µM | TGI (KM12 colon): > 100 µM | TGI (SN12C renal): > 100 µM | TGI (SNB-19 CNS): > 100 µM | TGI (UACC-62 melanoma): 97.6 µM | GI50 (PC-3 prostate): 29.2 µM | TGI (PC-3 prostate): > 100 µM | TGI (LXFL 529 NSCLC): 97.4 µM | TGI (NCI-H226 lung): > 85.1 µM | TGI (SK-MEL-2 melanoma): 99.4 µM | GI50 (T-47D breast): 17.5 µM | TGI (T-47D breast): > 77.1 µM | TGI (SF-295 CNS): > 87.3 µM | TGI (HCT-116 colon): > 100 µM | GI50 (DU-145 prostate): 71.5 µM | TGI (DU-145 prostate): > 100 µM | TGI (TK-10 renal): > 100 µM | TGI (HOP-62 NSCLC): > 100 µM | TGI (OVCAR-5 ovarian): 97.5 µM | TGI (EKVX NSCLC): > 100 µM | TGI (RXF 393 renal): > 93.9 µM | TGI (HCC-2998 colon): > 75.5 µM | TGI (SK-MEL-5 melanoma): 39.3 µM | TGI (HL-60(TB) leukemia): 66.9 µM | TGI (M14 melanoma): > 100 µM | TGI (OVCAR-3 ovarian): > 9.31 µM | TGI (SK-OV-3 ovarian): > 100 µM | TGI (SNB-78 CNS): > 100 µM | TGI (SW-620 colon): > 60.5 µM | TGI (OVCAR-4 ovarian): > 100 µM | TGI (COLO 205 colon): 66.7 µM | TGI (SR leukemia): > 89.4 µM | GI50 (NCI/ADR-RES ovarian): 30.7 µM | TGI (NCI/ADR-RES ovarian): > 100 µM | TGI (NCI-H23 lung): > 100 µM | TGI (SK-MEL-28 melanoma): > 100 µM | GI50 (HS 578T breast): 59.6 µM | TGI (HS 578T breast): > 100 µM | TGI (A498 renal): > 100 µM | TGI (SF-268 CNS): > 100 µM | TGI (NCI-H522 lung): > 74.1 µM | TGI (OVCAR-8 ovarian): > 100 µM

CC/C=C1\N=C(c2ccc(Cl)cc2)OC1=O
TGI (DMS 273 small cell lung): > 100 µM | TGI (KM20L2 colon): > 100 µM | TGI (K-562 leukemia): > 100 µM | TGI (A549 NSCLC): > 100 µM | TGI (SNB-75 CNS): > 100 µM | TGI (DLD-1 colon): > 100 µM | TGI (UO-31 renal): > 100 µM | TGI (UACC-257 melanoma): > 100 µM | TGI (MOLT-4 leukemia): > 100 µM | TGI (CAKI-1 renal): > 100 µM | TGI (LOX IMVI melanoma): > 100 µM | TGI (NCI-H460 lung): > 100 µM | TGI (IGROV1 ovarian): > 100 µM | TGI (HCT-15 colon): > 100 µM | TGI (SF-539 CNS): > 100 µM | TGI (RPMI-8226 leukemia): > 100 µM | TGI (M19-MEL melanoma): > 100 µM | TGI (HOP-92 NSCLC): > 100 µM | TGI (ACHN renal): > 100 µM | TGI (786-0 renal): > 100 µM | TGI (HT29 colon): > 100 µM | TGI (CCRF-CEM leukemia): > 100 µM | TGI (MALME-3M melanoma): > 100 µM | TGI (KM12 colon): > 100 µM | TGI (SN12C renal): > 100 µM | TGI (SNB-19 CNS): > 100 µM | TGI (UACC-62 melanoma): > 100 µM | TGI (LXFL 529 NSCLC): > 100 µM | TGI (NCI-H226 lung): > 100 µM | TGI (SK-MEL-2 melanoma): > 100 µM | TGI (SF-295 CNS): > 100 µM | TGI (TK-10 renal): > 100 µM | TGI (HOP-62 NSCLC): > 100 µM | TGI (OVCAR-5 ovarian): > 100 µM | TGI (EKVX NSCLC): > 100 µM | TGI (RXF 393 renal): > 100 µM | TGI (HCC-2998 colon): > 100 µM | TGI (HL-60(TB) leukemia): > 100 µM | TGI (M14 melanoma): > 100 µM | TGI (OVCAR-3 ovarian): > 100 µM | TGI (SK-OV-3 ovarian): > 100 µM | TGI (SNB-78 CNS): > 100 µM | TGI (SW-620 colon): > 100 µM | TGI (OVCAR-4 ovarian): > 100 µM | TGI (COLO 205 colon): > 100 µM | TGI (DMS 114 small cell lung): > 100 µM | TGI (NCI-H23 lung): > 100 µM | TGI (XF 498 CNS): > 100 µM | TGI (SK-MEL-28 melanoma): > 100 µM | TGI (A498 renal): > 100 µM | TGI (SF-268 CNS): > 100 µM | TGI (NCI-H522 lung): > 100 µM | TGI (OVCAR-8 ovarian): > 100 µM

Cc1cc2c(=O)n(-c3ccc(F)cc3)c(C)nc2c(C(=O)O)c1C
TGI (DMS 273 small cell lung): > 100 µM | TGI (KM20L2 colon): > 100 µM | TGI (K-562 leukemia): > 100 µM | TGI (A549 NSCLC): > 100 µM | TGI (SNB-75 CNS): > 100 µM | TGI (DLD-1 colon): > 100 µM | TGI (UO-31 renal): > 100 µM | TGI (UACC-257 melanoma): > 100 µM | TGI (U251 CNS): > 100 µM | TGI (MOLT-4 leukemia): > 100 µM | TGI (HOP-18 NSCLC): > 100 µM | TGI (CAKI-1 renal): > 100 µM | TGI (LOX IMVI melanoma): > 100 µM | TGI (NCI-H460 lung): > 100 µM | TGI (IGROV1 ovarian): > 100 µM | TGI (HCT-15 colon): > 100 µM | TGI (SF-539 CNS): > 100 µM | TGI (RPMI-8226 leukemia): > 100 µM | TGI (M19-MEL melanoma): > 100 µM | TGI (HOP-92 NSCLC): > 100 µM | TGI (ACHN renal): > 100 µM | TGI (786-0 renal): > 100 µM | TGI (HT29 colon): > 100 µM | TGI (CCRF-CEM leukemia): > 100 µM | TGI (MALME-3M melanoma): > 100 µM | TGI (KM12 colon): > 100 µM | TGI (SN12C renal): > 100 µM | TGI (UACC-62 melanoma): > 100 µM | TGI (LXFL 529 NSCLC): > 100 µM | TGI (NCI-H226 lung): > 100 µM | TGI (SK-MEL-2 melanoma): > 100 µM | TGI (SF-295 CNS): > 100 µM | TGI (HCT-116 colon): > 100 µM | TGI (TK-10 renal): > 100 µM | TGI (HOP-62 NSCLC): > 100 µM | TGI (OVCAR-5 ovarian): > 100 µM | TGI (EKVX NSCLC): > 100 µM | TGI (RXF 393 renal): > 100 µM | TGI (HCC-2998 colon): > 100 µM | TGI (SK-MEL-5 melanoma): > 100 µM | TGI (HL-60(TB) leukemia): > 100 µM | TGI (M14 melanoma): > 100 µM | TGI (OVCAR-3 ovarian): > 100 µM | TGI (SK-OV-3 ovarian): > 100 µM | TGI (SNB-78 CNS): > 100 µM | TGI (SW-620 colon): > 100 µM | TGI (OVCAR-4 ovarian): > 100 µM | TGI (COLO 205 colon): > 100 µM | TGI (SR leukemia): > 100 µM | TGI (DMS 114 small cell lung): > 100 µM | TGI (NCI-H23 lung): > 100 µM | TGI (SK-MEL-28 melanoma): > 100 µM | TGI (A498 renal): > 100 µM | TGI (SF-268 CNS): > 100 µM | TGI (OVCAR-8 ovarian): > 100 µM
